# Source: patent US20160282364A1, “ASSAY FOR INSULIN-DEGRADING ENZYME (IDE) INHIBITORS” (PRESIDENT AND FELLOWS OF HARVARD COLLEGE, priority 2013, published 2016)
# Legend:
# IDE (R&D) = IDE (R&D) (Homo sapiens, UniProt P14735); assay: Yonetani-Theorell double inhibitor kinetic assay; type: biochemical; design: recombinant human IDE42-1019 (R&D Systems); purchased R&D Systems; details: 6b together with substrate mimetic Ii1
# From the text: Protease assays with fluorogenic peptide substrates. […] All assay data points were obtained in duplicate.
# GCGR−/− mice = assay: Glucose tolerance tests in glucagon receptor knockout mice; type: in vivo, mouse; details: 80 mg/kg
# From the text: In vivo studies, general information. Wild-type C57BL/6J and diet-induced obese (DIO) C57BL/6J age-matched male adult mice were purchased from Jackson Laboratories. The age range was 13 to 15 weeks for lean mice, and 24 to 26 weeks for DIO mice. All animals were individually housed on a 14-h light, 10-h dark schedule at the Biology Research Infrastructure (BRI), Harvard University. Cage enrichment included cotton bedding and a red plastic hut. Water and food were available ad libitum, consisting respectively of normal chow (Prolab® RHM 3000) or high-fat diet (60 kcal % fat, D12492, Research Diets Inc.). […]
# Glucose tolerance tests GTT and blood glucose measurements. […] Blood glucose was measured using AccuCheck® meters (Aviva) from blood droplets obtained from a small nick at the tip of the tail, at timepoints −45, 0, 15, 30, 45, 60, 90 and 120 min with reference to the time of glucose injection. The area of the blood glucose response profile curve corresponding to each animal was calculated by the trapezoid method^17, using as reference each individual baseline blood glucose measurement prior to glucose administration (t=0). […]
# lean mice = assay: Basal blood glucose and hormone levels without nutrient challenge; type: in vivo, mouse; details: 80 mg/kg, no glucose challenge, vs controls
# Method: Glucose tolerance tests GTT and blood glucose measurements. Prior to a glucose challenge, the animals were fasted for 14 h (8 pm to 10 am, during the dark cycle) while individually housed in a clean cage with inedible wood-chip as a floor substrate, cotton bedding and a red plastic hut. Inhibitor, vehicle or control compounds were administered by a single intraperitoneal (i.p.) injection 30 min prior to the glucose challenge. Dextrose was formulated in sterile saline (3 g in 10 mL total), and the dose was adjusted by fasted body weight. For oGTT, 3.0 g/kg dextrose was administered by gavage at a dose of 10 mL/kg, and for ipGTT, 1.5 g/kg dextrose injected at a dose of 5 mL/kg. Blood glucose was measured using AccuCheck® meters (Aviva) from blood droplets obtained from a small nick at the tip of the tail, at timepoints −45, 0, 15, 30, 45, 60, 90 and 120 min with reference to the time of glucose injection. The area of the blood glucose response profile curve corresponding to each animal was calculated by the trapezoid method^17, using as reference each individual baseline blood glucose measurement prior to glucose administration (t=0). […] Values are reported as mean±S.E.M. Statistics were performed using a two-tail Student's t-test, and significance levels shown in the figures are *p<0.05 versus vehicle control group or **p<0.01 versus vehicle control group. […]
# Sequence of IDE (R&D) (P14735 42-1019): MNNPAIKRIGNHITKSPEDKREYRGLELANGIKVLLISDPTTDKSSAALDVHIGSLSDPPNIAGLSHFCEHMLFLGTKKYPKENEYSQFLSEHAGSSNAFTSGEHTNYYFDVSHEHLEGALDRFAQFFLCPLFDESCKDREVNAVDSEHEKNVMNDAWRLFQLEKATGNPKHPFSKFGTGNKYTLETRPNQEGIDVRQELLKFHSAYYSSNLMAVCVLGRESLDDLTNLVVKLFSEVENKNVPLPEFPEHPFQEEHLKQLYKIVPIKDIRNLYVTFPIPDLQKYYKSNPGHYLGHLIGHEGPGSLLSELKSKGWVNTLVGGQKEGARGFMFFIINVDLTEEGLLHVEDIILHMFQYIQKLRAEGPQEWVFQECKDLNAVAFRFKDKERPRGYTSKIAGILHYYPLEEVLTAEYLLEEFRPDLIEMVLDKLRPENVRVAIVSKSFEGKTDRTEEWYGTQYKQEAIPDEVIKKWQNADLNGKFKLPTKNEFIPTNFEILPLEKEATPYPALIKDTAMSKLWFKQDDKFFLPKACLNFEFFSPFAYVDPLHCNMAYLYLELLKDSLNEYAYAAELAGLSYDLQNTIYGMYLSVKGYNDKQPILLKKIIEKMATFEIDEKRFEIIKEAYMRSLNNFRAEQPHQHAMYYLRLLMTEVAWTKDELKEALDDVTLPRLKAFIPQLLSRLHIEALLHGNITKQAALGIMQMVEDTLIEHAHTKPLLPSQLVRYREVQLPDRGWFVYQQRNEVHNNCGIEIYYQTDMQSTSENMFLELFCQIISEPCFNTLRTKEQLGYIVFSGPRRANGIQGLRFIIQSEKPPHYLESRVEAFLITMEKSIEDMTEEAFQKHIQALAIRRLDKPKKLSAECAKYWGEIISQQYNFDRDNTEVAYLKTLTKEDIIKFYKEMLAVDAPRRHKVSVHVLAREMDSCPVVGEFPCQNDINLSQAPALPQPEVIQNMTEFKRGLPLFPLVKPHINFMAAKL
mode of double inhibition with Ii1 (IDE (R&D)),SMILES,response to i.p. injected glucose (GCGR−/− mice; 6bK vs vehicle),oral glucose tolerance (GCGR−/− mice; vs vehicle),basal blood glucose or hormone levels (lean mice)
synergistic,NC(=O)CCC1NC(=O)C=CC(=O)NC(C(N)=O)CCCCNC(=O)C(Cc2ccc(C(=O)c3ccccc3)cc2)NC(=O)C(CC2CCCCC2)NC1=O (stereo not shown) [Compound 6b],–,–,–
–,NCCCC[C@@H]1NC(=O)/C=C/C(=O)N[C@H](C(N)=O)CCCCNC(=O)[C@@H](Cc2ccc(C(=O)c3ccccc3)cc2)NC(=O)[C@H](CC2CCCCC2)NC1=O [Compound 6bK],virtually identical,improvement,did not significantly alter
